Target: T1, DmCry (Drosophila melanogaster, UniProt O77059)
T1 construct: gene cry
Test: UV-visible absorption spectroscopy of protein-bound flavin, photoreduction and dark reoxidation
Assay type: binding
Conditions: co-purified cofactor; 50 mM phosphate pH 7.5, 10 mM beta-mercaptoethanol, 21 °C; blue light

T1 sequence (O77059 whole entry): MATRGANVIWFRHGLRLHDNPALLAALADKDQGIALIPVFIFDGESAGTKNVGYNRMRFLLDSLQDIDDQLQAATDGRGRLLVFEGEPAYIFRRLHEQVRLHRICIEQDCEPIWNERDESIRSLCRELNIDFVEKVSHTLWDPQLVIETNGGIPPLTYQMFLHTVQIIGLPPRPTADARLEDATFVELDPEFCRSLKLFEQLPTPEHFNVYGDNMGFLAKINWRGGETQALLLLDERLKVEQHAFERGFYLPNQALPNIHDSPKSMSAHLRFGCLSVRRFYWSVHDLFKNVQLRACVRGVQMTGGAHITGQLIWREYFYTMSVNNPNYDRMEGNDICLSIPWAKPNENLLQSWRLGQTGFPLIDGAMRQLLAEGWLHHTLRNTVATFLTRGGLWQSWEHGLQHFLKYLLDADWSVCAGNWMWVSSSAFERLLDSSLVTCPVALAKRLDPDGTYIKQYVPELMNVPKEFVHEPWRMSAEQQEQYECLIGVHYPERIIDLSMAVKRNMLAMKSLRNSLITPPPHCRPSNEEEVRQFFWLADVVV

Structure (SMILES): Cc1cc2nc3c(=O)[nH]c(=O)nc-3n(C[C@H](O)[C@H](O)[C@H](O)COP(=O)(O)OP(=O)(O)OC[C@H]3O[C@@H](n4cnc5c(N)ncnc54)[C@H](O)[C@@H]3O)c2cc1C [FAD]
- UV-visible absorption spectroscopy of protein-bound flavin, photoreduction and d: Flavin reduction to the anionic radical (FAD^•-) redox form could then be observed
